{
  "source": "patent US20240279710A1",
  "about": "“FLUORESCENT PROBES” (TOHOKU TECHNO ARCH CO., LTD., priority 2021, published 2024)",
  "key": {"SH-SY5Y cells": {"system": "SH-SY5Y cells", "assay": "Live cell imaging of calpain activity in SH-SY5Y cells", "format": "cell-based", "conditions": "5 μM probe, 10 minutes incubation, FIG. 12", "protocol": "Whether or not the improvement in enzymatic reactivity between the compound of the present invention and a calpain confirmed by the above-mentioned experiment remained the same even in a cell was verified. Calpain activity imaging in SH-SY5Y cells was performed on each of Compounds 16 and 19. Specifically, the SH-SY5Y cells (American Type Culture Collection, VA, USA) were cultured in a mixed medium of Dulbecco's modified eagle medium and Ham's F-12 medium (DMEM/F-12; Thermo Fisher Scientific, Inc.) (containing 10% fetal bovine serum (FBS; Thermo Fisher Scientific, Inc., MA, USA) and 100 U/mL penicillin-100 μg/mL streptomycin (PS; Thermo Fisher Scientific, Inc.)) under the conditions of 37° C. and 5% CO2-95% air. 6×10^4 to 8×10^4 Cells/well of the cells were seeded in a multiwell plate (μ-Plate 96 Well; ibidi, Grafelfing, Germany) coated with poly-D-lysine (Thermo Fisher Scientific, Inc.) and laminin (BD Biosciences, CA, USA), and were preincubated in a culture solution. Immediately after the removal of the culture solution in the wells, 200 μL of an assay solution (a culture solution containing a 5 μM probe) was added thereto, and the cells were incubated under the conditions of 37° C. and 5% CO2-95% air. 10 Minutes after that, a bright field image and a fluorescence image were taken with a confocal microscope (LSM 710, Carl Zeiss AG, Oberkochen, Germany).\nCalpain activity imaging in SH-SY5Y cells was performed on each of Compounds 20 to 23, Compound 38, and Compound 56 in the same manner as in Example 9. In the case of each of Compounds 20 to 23 and Compound 38, a bright field image and a fluorescence image were taken after 30 minutes of incubation of the cells, and in the case of Compound 56, such images were taken after 20 minutes of incubation thereof."}, "calpain [1]": {"system": "calpain", "assay": "Rabbit NMDA injury model, ocular fundus imaging", "format": "in vivo", "conditions": "for staining of nerve cells with HMRG in ocular fundus: 30, 45 and 60 minutes after probe into the eye (Compound 19 18.3 μM 19 μL; Compound 16 20 μM 19 μl or 38 μl)", "protocol": "Black Dutch rabbits were each subjected to general anesthesia with a mixed liquid of ketamine and xylazine. N-Methyl-D-aspartate (NMDA) (12 mM, 50 μL) or PBS was administered into an eye of the rabbit. 9 Hours after that, the rabbit was anesthetized with a mixed liquid of ketamine and xylazine again, and Compound 19 (18.3 μM, 19 μL), Compound 16 (20 μM, 19 μl), or Compound 16 (20 μM, 38 μl) was administered into the eye. Images of an ocular fundus were taken with Mirante (a confocal scanning diode laser ophthalmoscope manufactured by Nidek Co., Ltd.) before the administration of each of the compounds and after the lapse of a predetermined time from the administration."}, "calpain [2]": {"system": "calpain", "assay": "Rat NMDA injury model, ocular fundus imaging", "format": "in vivo", "conditions": "for staining of nerve cells with HMRG in ocular fundus: probe 18.3 μM, 20 minutes after administration; for number of HMRG-positive cells in ocular fundus: FIG. 16", "protocol": "Black Brown-Norway rats were each subjected to general anesthesia with isoflurane. PBS or N-methyl-D-aspartate (NMDA) (10 mM, 2 μL) was administered into an eye of the rat. 6 Hours after that, the rat was anesthetized with a mixed liquid of ketamine and xylazine again, and Compound 19 (18.3 μM, 3 μL) was administered into the eye. Images of an ocular fundus were taken with F-10 (a confocal biomicroscope manufactured by Nidek Co., Ltd.) before the administration of Compound 19 and 20 minutes after the administration."}, "[3]": {"conditions": "rabbits administered NMDA, Compound 19 18.3 μM 19 μL, FIG. 23"}},
  "data": [
    {"compound": "COCC(=O)N[C@@H](CC(C)C)C(=O)N[C@@H](CCSC)C(=O)Nc1ccc2c(c1)Oc1cc(N)ccc1C21OCc2ccccc21", "note": "(stereo partly drawn) [Compound 19]", "values": [
      {"measurement": "calpain activity imaging in SH-SY5Y cells", "setting": "SH-SY5Y cells; confocal microscope", "value": "enabled the observation of calpain activity in the SH-SY5Y cells"},
      {"measurement": "clarity of live cell imaging compared to Compound 16", "setting": "SH-SY5Y cells", "value": "Clear imaging"},
      {"measurement": "number of HMRG-positive cells in PBS rabbits compared to NMDA rabbits", "setting": "calpain [1]; Compound 19 (19 μL) and Compound 16 (38 μl), FIG. 23", "value": "significantly reduced"},
      {"measurement": "reactivity in relation to dose, compared with Compound 16", "setting": "calpain [1]; rabbit NMDA injury model, administration into the eye", "value": "satisfactory reactivity even when used in a dose smaller than that of Compound 16"},
      {"measurement": "staining of nerve cells with HMRG in ocular fundus", "setting": "calpain [1]; rabbits administered NMDA (12 mM, 50 μL)", "value": "many nerve cells were clearly stained with HMRG"},
      {"measurement": "number of HMRG-positive cells compared to Compound 16 (19 μl)", "setting": "calpain [1]; [3]", "value": "significantly increased"},
      {"measurement": "number of HMRG-positive cells compared to Compound 16 (38 μl)", "setting": "calpain [1]; [3]", "value": "tended to increase"},
      {"measurement": "staining of nerve cells with HMRG in ocular fundus", "setting": "calpain [1]; rabbits administered PBS", "value": "substantially no staining of the nerve cells with HMRG"},
      {"measurement": "staining of nerve cells with HMRG in ocular fundus", "setting": "calpain [2]; rats administered NMDA (10 mM, 2 μL), 3 μL into the eye 6 hours later", "value": "many of the nerve cells were clearly stained"},
      {"measurement": "number of HMRG-positive cells in ocular fundus", "setting": "calpain [2]; rats administered NMDA", "value": "significant increase"},
      {"measurement": "number of HMRG-positive cells in ocular fundus", "setting": "calpain [2]; rats administered PBS", "value": "extremely small"},
      {"measurement": "staining of nerve cells with HMRG in ocular fundus", "setting": "calpain [2]; rats administered PBS, 3 μL into the eye", "value": "substantially no nerve cells are stained"}
    ]}
  ]
}
